Publication PMC5915149, “The role of oxidative stress in activity of anticancer thiosemicarbazones” (Oncotarget, 2018)
Like-named read-outs stand apart in the source and are kept apart here.

How the values were obtained:
HCT116 = assay: MTS antiproliferative assay, HCT116 (with or without added metal ions); format: cell-based, human; conditions: 96 h
Procedure, shortened: (§1)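 Cells seeded at 3,500/well, left 24 h at 37°C, then exposed to compounds for 96 h, optionally with 20 µM CuSO4, FeSO4 or FeCl3 added. Viability by MTS absorbance at 490 nm after 1 h; IC50 taken as concentration reducing proliferation to 50% of untreated control.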

MCF-7 = assay: MTS antiproliferative assay, MCF-7 (with or without added metal ions); format: cell-based, human
Procedure, shortened: as §1

NHDF = system: NHDF; set-up: method as in PMID 25329549; conditions: 96 h incubation, MTS; cited from earlier work

SMILES: S=C(NN=C(c1ccccn1)c1ccccn1)N1CCN(c2ccccc2)CC1 [Compound 3a]
- IC50 (HCT116; 20 µM CuSO4 added, read-out: Activity - IC50 HCT116+ Cu^2+): 0.68 ± 0.15 nM
- IC50 (HCT116; 20 µM FeCl3 added, read-out: Activity - IC50 HCT116+ Fe^3+): 2.07 ± 0.78 nM
- IC50 (MCF-7; 96 h, 20 µM CuSO4 added, read-out: Activity - IC50 MCF-7+ Cu^2+): 1.55 ± 0.55 nM
- IC50 (MCF-7; 96 h, 20 µM FeCl3 added, read-out: Activity - IC50 MCF-7+ Fe^3+): 8.96 ± 1.81 nM
- IC50 (MCF-7; 96 h incubation, MTS, read-out: Activity - IC50 MCF-7): 12 ± 2.04 nM
- improvement in cytotoxicity after interacting with Cu^2+ (MCF-7; MCF-7 cells, 20 µM CuSO4): eight-fold
- IC50 (NHDF): 1.73 ± 0.71 nM
